Test results: patent publication US7893197B2, “Relaxin-3 chimeric polypeptides and their preparation and use” (Janssen Pharmaceutica N.V., priority 2005, dated 2011)
Blank lines part the entries; values can stand above or below the substance they belong to. Ends that are not written are not given here.

What was measured:
[1] = test system: [125I]-R3/I5 binding sites (GPCR135) in rat brain; assay: Quantitative receptor autoradiography, inhibition of [125I]-R3/I5 binding on rat brain sections; details: 7 pM [125I]-R3/I5; all regions investigated
Sequence of [125I]-R3/I5 binding sites (GPCR135) in rat brain (as listed by the source): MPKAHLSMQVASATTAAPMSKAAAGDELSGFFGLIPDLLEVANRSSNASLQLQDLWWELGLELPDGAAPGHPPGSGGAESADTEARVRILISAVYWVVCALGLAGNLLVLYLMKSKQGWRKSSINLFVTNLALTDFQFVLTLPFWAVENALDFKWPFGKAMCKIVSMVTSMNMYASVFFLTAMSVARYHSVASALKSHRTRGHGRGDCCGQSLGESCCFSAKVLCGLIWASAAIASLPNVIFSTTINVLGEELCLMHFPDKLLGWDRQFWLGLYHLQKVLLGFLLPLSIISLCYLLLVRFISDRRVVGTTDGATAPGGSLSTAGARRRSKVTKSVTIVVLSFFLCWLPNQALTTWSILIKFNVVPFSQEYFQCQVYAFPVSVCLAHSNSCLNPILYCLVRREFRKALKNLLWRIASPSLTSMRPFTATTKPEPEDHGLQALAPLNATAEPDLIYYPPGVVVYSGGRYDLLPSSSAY
Procedure: (§1) Rats were asphyxiated by carbon dioxide. Brains were immediately removed from the skull and rapidly frozen in dry-ice. Twenty-micron-thick frontal sections were cut using a Cryostat-microtome (Microm HM505E, Mikron, San Diego, Calif.) and thaw-mounted on adhesive microscope slides (Superfrost^+ Plus, VWR). The sections were kept at −70° C. until use. The sectioning protocol for the regional distribution study included series of coronal sections covering the entire brain.
Sections were thawed and dried under a cold air stream and then pre-incubated for 15 min. at room temperature in incubation buffer (20 mM HEPES, pH 7.4, 120 mM NaCl2, 0.22 mM KH2PO4, 1.3 mM CaCl2, 0.8 mM MgSO4) by immersing sections in a 400 ml jar. Sections were dried again under a cold air stream and incubated for 60 min. with 7 pM [^125I]-R3/I5 (specific activity, 2200 Ci/mmole) in incubation buffer containing 0.5% BSA and protease inhibitor cocktail. […] Nonspecific binding was determined in the presence of 100 nM of human R3. After incubation, the excess radioligand was washed off by immersing the slides in the jar containing incubation buffer at 4° C. (3 times 10 min.) followed by a quick immersion in water. Sections were dried and exposed to Fujifilm Imaging plates (BAS-MS 2025) for 48 hrs. […]

[2] = test system: GPCR135 binding sites in rat brain; assay: Receptor autoradiography, distribution of [125I]R3/I5 binding sites in rat brain; set-up: key: −: not detected; +: low density; ++: moderate density; +++: high density; details: 7 pM, n = 3
Sequence of GPCR135 binding sites in rat brain (as listed by the source): as above
Procedure: as §1
Sections were thawed and dried under a cold air stream and then pre-incubated for 15 min. at room temperature in incubation buffer (20 mM HEPES, pH 7.4, 120 mM NaCl2, 0.22 mM KH2PO4, 1.3 mM CaCl2, 0.8 mM MgSO4) by immersing sections in a 400 ml jar. Sections were dried again under a cold air stream and incubated for 60 min. with 7 pM [^125I]-R3/I5 (specific activity, 2200 Ci/mmole) in incubation buffer containing 0.5% BSA and protease inhibitor cocktail. […] Nonspecific binding was determined in the presence of 100 nM of human R3. After incubation, the excess radioligand was washed off by immersing the slides in the jar containing incubation buffer at 4° C. (3 times 10 min.) followed by a quick immersion in water. Sections were dried and exposed to Fujifilm Imaging plates (BAS-MS 2025) for 48 hrs. The imaging plates were scanned using the Fuji Bio-Imaging Analyzer System (BAS-5000, Fuji Medical System, CT) and visualized using ImageGauge V3.12 software (Fuji Medical System, CT).
Cresyl-violet staining was performed on adjacent sections and the regions were identified using the rat brain atlas of Paxinos and Watson (Paxinos et al., 1998, The Rat Brain in Stereotaxic Coordinates, New York, Academic Press (publisher)). For illustration purposes, sections were exposed to autoradiography film ((Kodak Omat AR, Rochester N.Y.). After a 4-week exposure, they were automatically developed and fixed in a Konica SRY-101A machine (Konica Medical Corp., Wayne N.J.). Adobe Photoshop 7.0 and Illustrator 9.0 were used for preparation of the figures.

LGR7 = target: T1, LGR7 (Homo sapiens, UniProt Q9HBX9); assay: Binding of radioligands to COS-7 cells transfected with LGR7; details: radioligand 100 pM
T1 construct: Human LGR7 cDNA containing the complete coding region was PCR amplified; expressed in transfected cells
T1 sequence (Q9HBX9 1-757): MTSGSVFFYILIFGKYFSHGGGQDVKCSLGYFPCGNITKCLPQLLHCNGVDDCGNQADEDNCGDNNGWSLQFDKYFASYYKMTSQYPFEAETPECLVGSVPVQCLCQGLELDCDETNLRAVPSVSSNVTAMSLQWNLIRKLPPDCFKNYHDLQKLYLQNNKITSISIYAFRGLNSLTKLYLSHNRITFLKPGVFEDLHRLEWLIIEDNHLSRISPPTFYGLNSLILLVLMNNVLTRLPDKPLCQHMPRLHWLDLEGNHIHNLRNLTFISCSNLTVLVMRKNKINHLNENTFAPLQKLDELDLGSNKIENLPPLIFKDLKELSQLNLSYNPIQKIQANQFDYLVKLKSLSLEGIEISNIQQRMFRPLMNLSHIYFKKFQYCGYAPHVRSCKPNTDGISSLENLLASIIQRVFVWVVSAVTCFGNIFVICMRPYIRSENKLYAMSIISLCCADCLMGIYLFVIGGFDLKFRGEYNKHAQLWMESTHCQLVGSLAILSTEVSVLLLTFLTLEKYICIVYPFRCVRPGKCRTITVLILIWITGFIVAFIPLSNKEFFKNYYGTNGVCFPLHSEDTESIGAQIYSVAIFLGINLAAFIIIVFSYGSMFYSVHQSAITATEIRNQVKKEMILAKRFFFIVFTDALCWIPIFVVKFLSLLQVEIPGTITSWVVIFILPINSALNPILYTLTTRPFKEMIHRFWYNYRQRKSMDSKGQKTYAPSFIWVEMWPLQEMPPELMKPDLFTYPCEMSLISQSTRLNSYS
Procedure: (§2) FIGS. 5A-5D illustrate a comparative analysis of the binding specificities of [^125I]-relaxin-3 and [^125I]-R3/I5 for GPCR135 and LGR7. COS-7 cells in 6-well culture dishes were transfected with human GPCR135 and LGR7, respectively. Mock transfected COS-7 cells were used as the negative controls. [^125I]-relaxin-3 (FIG. 5A) or [^125I]-R3/I5 (FIG. 5B) was added to cells at a final concentration of 100 pM either in the absence or presence of 1 uM of unlabeled relaxin-3 to determine total binding and non-specific binding, respectively. FIG. 5C depicts an autoradiogram of [^125]-relaxin-3 binding in rat brain sagittal section. FIG. 5D depicts an autoradiogram of non-specific binding of [^125]-relaxin-3 as determined in the presence of 100 nM of unlabeled relaxin-3. FIG. 5E depicts an autoradiogram of [^125]-R3/I5 binding in rat brain sagittal section. […] binding of [^125]-R3/I5 as determined in the presence of 100 nM of unlabeled relaxin-3.

GPCR135 = target: T2, GPCR135 (Homo sapiens, UniProt Q9NSD7); assay: Binding of radioligands to COS-7 cells transfected with GPCR135
T2 construct: expressed in transfected cells
T2 sequence (Q9NSD7 1-469): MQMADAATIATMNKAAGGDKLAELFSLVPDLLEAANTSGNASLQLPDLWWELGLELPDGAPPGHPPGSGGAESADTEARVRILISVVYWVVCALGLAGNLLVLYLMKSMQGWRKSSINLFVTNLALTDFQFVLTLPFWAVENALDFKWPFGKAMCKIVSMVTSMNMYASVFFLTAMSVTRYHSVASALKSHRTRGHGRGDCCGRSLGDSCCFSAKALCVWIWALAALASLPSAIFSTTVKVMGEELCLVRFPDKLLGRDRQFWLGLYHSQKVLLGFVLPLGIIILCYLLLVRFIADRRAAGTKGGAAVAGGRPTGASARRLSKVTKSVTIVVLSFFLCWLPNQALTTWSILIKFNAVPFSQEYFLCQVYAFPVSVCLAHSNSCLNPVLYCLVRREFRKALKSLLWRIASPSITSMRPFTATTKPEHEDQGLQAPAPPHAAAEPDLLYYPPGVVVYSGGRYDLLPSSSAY
Procedure: as §2

Substance: Relaxin: human relaxin (R1) used as competitor in Example 6 (KWKDDVIKLCGRELVRAQIAICGMSTWSRPYVALFEKCCLIGCTKRSLAKYC)
displacement of [125I]-R3/I5 binding sites, in words [1]: did not displace any significant amount of [^125I]-R3/I5 binding sites at concentrations of up to 100 nM

[125I]R3/I5 binding sites, density ([2]; Amygdaloid body: Amygdalohippocampal area): +++ | [125I]R3/I5 binding sites, density ([2]; Amygdaloid body: Bed nucleus stria terminalis): ++ | [125I]R3/I5 binding sites, density ([2]; Amygdaloid body: Central nucleus): ++ | [125I]R3/I5 binding sites, density ([2]; Amygdaloid body: Lateral nucleus): ++ | [125I]R3/I5 binding sites, density ([2]; Amygdaloid body: Medial nucleus): ++ | [125I]R3/I5 binding sites, density ([2]; Brain stem: Dorsal raphe, dorsal part): + | [125I]R3/I5 binding sites, density ([2]; Brain stem: Inferior colliculus): ++ | [125I]R3/I5 binding sites, density ([2]; Brain stem: Interpeduncular nucleus): +++ | [125I]R3/I5 binding sites, density ([2]; Brain stem: Nucleus incertus): ++ | [125I]R3/I5 binding sites, density ([2]; Brain stem: Periaqueductal gray area): ++ | [125I]R3/I5 binding sites, density ([2]; Brain stem: Spinal trigeminal tract): ++ | [125I]R3/I5 binding sites, density ([2]; Brain stem: Superior colliculus): +++ | [125I]R3/I5 binding sites, density ([2]; Cortex: Motor): ++ | [125I]R3/I5 binding sites, density ([2]; Cortex: Piriform): ++ | [125I]R3/I5 binding sites, density ([2]; Cortex: Somatosensory): ++ | [125I]R3/I5 binding sites, density ([2]; Cortex: Temporal): ++ | [125I]R3/I5 binding sites, density ([2]; Cortex: Visual): ++ | [125I]R3/I5 binding sites, density ([2]; Habenula: Medial): ++ | [125I]R3/I5 binding sites, density ([2]; Hippocampal formation: CAB field): + | [125I]R3/I5 binding sites, density ([2]; Hippocampal formation: Dentate gyrus): + | [125I]R3/I5 binding sites, density ([2]; Hypothalamus: Lateral nucleus): − | [125I]R3/I5 binding sites, density ([2]; Hypothalamus: Paraventricular nucleus): ++ | [125I]R3/I5 binding sites, density ([2]; Hypothalamus: Supraoptic nucleus): ++ | [125I]R3/I5 binding sites, density ([2]; Olfactory System: Anterior olfactory nucleus): +++ | [125I]R3/I5 binding sites, density ([2]; Olfactory System: Olfactory bulb): +++ | [125I]R3/I5 binding sites, density ([2]; Septal region: Lateral): + | [125I]R3/I5 binding sites, density ([2]; Thalamus: Centro lateral): ++ | [125I]R3/I5 binding sites, density ([2]; Thalamus: Centro medial): ++ | [125I]R3/I5 binding sites, density ([2]; Thalamus: Paraventricular): ++ | binding to GPCR135 expressing cells, in words (GPCR135; radioligand 100 pM): high affinity
Substance: [^125I]-R3/I5: radioiodinated R3/I5 chimera used as tracer (RAAPYGVRLCGREFIRAVIFTCGGSRWQDLQTLCCTDGCSMTDLSALC; ends and bridges not checked; also: radioiodinated (125I), site not given here)
binding to LGR7, in words (LGR7): did not demonstrate significant binding to LGR7 | non-specific binding, in words (GPCR135; in presence of 1 uM unlabeled relaxin-3): lower non-specific binding than [^125I]-relaxin-3
